Measurements from the NIST ThermoML archive (doi:10.1016/j.tca.2012.08.009).

Tests used:
[1] = wn = mass fraction of the nth substance listed; settings: 298.15 K, 101 kPa, Liquid; for viscosity: Capillary tube (Ostwald / Ubbelohde) method; for speed of sound: Linear variable-path acoustic interferometer; for mass density: Vibrating tube method
[2] = refractive index (Na D-line) (dimensionless); wn = mass fraction of the nth substance listed; settings: 298.15 K, 101 kPa, Liquid, Standard Abbe refractometry
[3] = 298.15 K, 101 kPa, Liquid; for viscosity: Capillary tube (Ostwald / Ubbelohde) method; for speed of sound: Linear variable-path acoustic interferometer; for mass density: Vibrating tube method
[4] = refractive index (Na D-line) (dimensionless); settings: 298.15 K; 101.33 kPa; Liquid; Standard Abbe refractometry
[5] = cn = amount concentration of the nth substance listed, in mol/dm3; settings: 298.15 K, 101 kPa, Liquid; for molar conductivity: Alternating current cell with electrodes; for viscosity: Capillary tube (Ostwald / Ubbelohde) method; for speed of sound: Linear variable-path acoustic interferometer; for mass density: Vibrating tube method
[6] = refractive index (Na D-line) (dimensionless); cn = amount concentration of the nth substance listed, in mol/dm3; settings: 298.15 K, 101 kPa, Liquid, Standard Abbe refractometry

CC#N [acetonitrile] + C1COCO1
w1 = 1
Settings	mass density [kg/m3]	refractive index	speed of sound [m/s]	viscosity [mPa·s]
[1]	776.74	–	1281.5	0.343
[2]	–	1.3418	–	–

CC#N [acetonitrile]
Settings	mass density [kg/m3]	refractive index	speed of sound [m/s]	viscosity [mPa·s]
[3]	776.74	–	1281.5	0.343
[4]	–	1.3418	–	–

C1COCO1 [1,3-dioxolane] + CC#N
Settings	mass density, [1] [kg/m3]	refractive index, [2]	speed of sound, [1] [m/s]	viscosity, [1] [mPa·s]
w2 = 0	1058.72	1.3974	1338.9	0.597
w2 = 0.25	979.95	1.3835	1324.6	0.533
w2 = 0.5	909.57	1.3696	1310.2	0.471
w2 = 0.75	841.47	1.3557	1295.8	0.407

[Cl-].[Li+] [lithium chloride] + C1COCO1
Settings	mass density [kg/m3]	molar conductivity [S·m2/mol]	refractive index	speed of sound [m/s]	viscosity [mPa·s]
[5], c1 = 3.525e-05	–	0.003047	–	–	–
[5], c1 = 3.871e-05	–	0.002972	–	–	–
[5], c1 = 4.453e-05	–	0.002875	–	–	–
[5], c1 = 4.924e-05	–	0.002803	–	–	–
[5], c1 = 5.609e-05	–	0.00273	–	–	–
[5], c1 = 6.159e-05	–	0.002693	–	–	–
[5], c1 = 6.635e-05	–	0.002673	–	–	–
[5], c1 = 7.162e-05	–	0.002663	–	–	–
[5], c1 = 7.442e-05	–	0.002672	–	–	–
[5], c1 = 7.691e-05	–	0.002715	–	–	–
[5], c1 = 7.721e-05	–	0.002746	–	–	–
[5], c1 = 7.779e-05	–	0.002778	–	–	–
[5], c1 = 0.0142	1058.75	–	–	1344.6	0.597
[5], c1 = 0.0284	1058.9	–	–	1356.8	0.598
[5], c1 = 0.0426	1059.11	–	–	1373.9	0.601
[5], c1 = 0.0568	1059.4	–	–	1394.7	0.603
[5], c1 = 0.071	1059.75	–	–	1420.8	0.606
[5], c1 = 0.0852	1060.14	–	–	1451.4	0.608
[6], c1 = 0.0142	–	–	1.398	–	–
[6], c1 = 0.0284	–	–	1.3988	–	–
[6], c1 = 0.0426	–	–	1.3994	–	–
[6], c1 = 0.0568	–	–	1.4	–	–
[6], c1 = 0.071	–	–	1.4005	–	–
[6], c1 = 0.0852	–	–	1.401	–	–

C1COCO1 [1,3-dioxolane]
Settings	mass density [kg/m3]	refractive index	speed of sound [m/s]	viscosity [mPa·s]
[3]	1058.72	–	1338.9	0.597
[4]	–	1.3974	–	–

[I-].[Li+] [lithium iodide] + C1COCO1
Settings	mass density [kg/m3]	molar conductivity [S·m2/mol]	refractive index	speed of sound [m/s]	viscosity [mPa·s]
[5], c1 = 8.17e-06	–	0.001792	–	–	–
[5], c1 = 1.498e-05	–	0.000612	–	–	–
[5], c1 = 2.075e-05	–	0.000192	–	–	–
[5], c1 = 2.568e-05	–	0.000191	–	–	–
[5], c1 = 2.997e-05	–	0.000418	–	–	–
[5], c1 = 3.702e-05	–	0.000994	–	–	–
[5], c1 = 4.495e-05	–	0.001751	–	–	–
[5], c1 = 5.081e-05	–	0.00241	–	–	–
[5], c1 = 5.66e-05	–	0.003074	–	–	–
[5], c1 = 6.421e-05	–	0.003828	–	–	–
[5], c1 = 6.958e-05	–	0.004382	–	–	–
[5], c1 = 7.293e-05	–	0.004735	–	–	–
[5], c1 = 0.0142	1058.82	–	–	1350.6	0.601
[5], c1 = 0.0284	1059.06	–	–	1377.7	0.607
[5], c1 = 0.0427	1059.4	–	–	1416.8	0.614
[5], c1 = 0.057	1059.82	–	–	1469.7	0.621
[5], c1 = 0.0714	1060.32	–	–	1539.7	0.628
[5], c1 = 0.0858	1060.86	–	–	1630.2	0.635
[6], c1 = 0.0142	–	–	1.3988	–	–
[6], c1 = 0.0284	–	–	1.3997	–	–
[6], c1 = 0.0427	–	–	1.4004	–	–
[6], c1 = 0.057	–	–	1.4011	–	–
[6], c1 = 0.0714	–	–	1.4018	–	–
[6], c1 = 0.0858	–	–	1.4024	–	–

[Br-].[Li+] [lithium bromide] + C1COCO1
Settings	mass density [kg/m3]	molar conductivity [S·m2/mol]	refractive index	speed of sound [m/s]	viscosity [mPa·s]
[5], c1 = 2.686e-05	–	0.002392	–	–	–
[5], c1 = 3.525e-05	–	0.002226	–	–	–
[5], c1 = 4.178e-05	–	0.002164	–	–	–
[5], c1 = 4.7e-05	–	0.002136	–	–	–
[5], c1 = 5.127e-05	–	0.002128	–	–	–
[5], c1 = 5.483e-05	–	0.002127	–	–	–
[5], c1 = 5.868e-05	–	0.002129	–	–	–
[5], c1 = 6.267e-05	–	0.002145	–	–	–
[5], c1 = 6.635e-05	–	0.002167	–	–	–
[5], c1 = 7.115e-05	–	0.002199	–	–	–
[5], c1 = 7.52e-05	–	0.002233	–	–	–
[5], c1 = 7.917e-05	–	0.002272	–	–	–
[5], c1 = 0.0142	1058.79	–	–	1347.4	0.599
[5], c1 = 0.0284	1059	–	–	1366.8	0.603
[5], c1 = 0.0426	1059.29	–	–	1394.6	0.607
[5], c1 = 0.0569	1059.65	–	–	1430.9	0.612
[5], c1 = 0.0712	1060.05	–	–	1475.6	0.617
[5], c1 = 0.0855	1060.52	–	–	1531.8	0.622
[6], c1 = 0.0142	–	–	1.3984	–	–
[6], c1 = 0.0284	–	–	1.3993	–	–
[6], c1 = 0.0426	–	–	1.4001	–	–
[6], c1 = 0.0569	–	–	1.4008	–	–
[6], c1 = 0.0712	–	–	1.4014	–	–
[6], c1 = 0.0855	–	–	1.402	–	–
